Results taken from ChEMBL document CHEMBL4507260 (2021).

Experiments:
Conditions in all cases: Compound concentration 1000.0 nM
[1] = target: Tyrosine-protein kinase ABL1 (Homo sapiens) (UniProt P00519)
[2] = target: Activin receptor type-1 (Homo sapiens) (UniProt Q04771)
[3] = target: Activin receptor type-2B (Homo sapiens) (UniProt Q13705)
[4] = target: Serine/threonine-protein kinase B-raf (Homo sapiens) (UniProt P15056)
[5] = target: Protein-tyrosine kinase 6 (Homo sapiens) (UniProt Q13882)
[6] = target: Mitotic checkpoint serine/threonine-protein kinase BUB1 (Homo sapiens) (UniProt O43683)
[7] = target: Calcium/calmodulin-dependent protein kinase type 1B (Homo sapiens) (UniProt Q6P2M8)
[8] = target: Calcium/calmodulin-dependent protein kinase type 1D (Homo sapiens) (UniProt Q8IU85)
Chain of Calcium/calmodulin-dependent protein kinase type 1D (Homo sapiens) (Q8IU85 whole entry, looked up): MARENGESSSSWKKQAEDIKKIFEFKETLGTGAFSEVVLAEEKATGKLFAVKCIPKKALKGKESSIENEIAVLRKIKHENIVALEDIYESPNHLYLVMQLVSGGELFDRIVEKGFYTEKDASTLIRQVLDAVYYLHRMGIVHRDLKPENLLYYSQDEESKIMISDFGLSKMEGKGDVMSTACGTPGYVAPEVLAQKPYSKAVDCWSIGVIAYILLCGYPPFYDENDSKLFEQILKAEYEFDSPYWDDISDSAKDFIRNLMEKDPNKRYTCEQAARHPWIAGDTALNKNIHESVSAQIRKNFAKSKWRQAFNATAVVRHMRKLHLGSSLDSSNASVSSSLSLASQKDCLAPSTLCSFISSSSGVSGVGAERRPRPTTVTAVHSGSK

[9] = target: Calcium/calmodulin-dependent protein kinase type 1G (Homo sapiens) (UniProt Q96NX5)
[10] = target: Calcium/calmodulin-dependent protein kinase type II subunit beta (Homo sapiens) (UniProt Q13554)
[11] = target: Cyclin-dependent kinase 11A (Homo sapiens) (UniProt Q9UQ88)
[12] = target: Cyclin-dependent kinase 5 (Homo sapiens) (UniProt Q00535)
[13] = target: Cyclin-dependent kinase 7 (Homo sapiens) (UniProt P50613)
[14] = target: Macrophage colony-stimulating factor 1 receptor (Homo sapiens) (UniProt P07333)
[15] = target: Casein kinase I isoform gamma-1 (Homo sapiens) (UniProt Q9HCP0)
[16] = target: Epithelial discoidin domain-containing receptor 1 (Homo sapiens) (UniProt Q08345)
[17] = target: Ephrin type-A receptor 1 (Homo sapiens) (UniProt P21709)
[18] = target: Ephrin type-A receptor 5 (Homo sapiens) (UniProt P54756)
[19] = test system: Receptor-type tyrosine-protein kinase FLT3 (Homo sapiens), P36888 [K663Q]
[20] = target: Vascular endothelial growth factor receptor 3 (Homo sapiens) (UniProt P35916)
[21] = target: G protein-coupled receptor kinase 3 (Homo sapiens) (UniProt P35626)
[22] = target: Tyrosine-protein kinase JAK1 (Homo sapiens) (UniProt P23458)
[23] = test system: Mast/stem cell growth factor receptor Kit (Homo sapiens), P10721 [V559D,T670I]
[24] = target: Leucine-rich repeat serine/threonine-protein kinase 2 (Homo sapiens) (UniProt Q5S007)
[25] = target: Mitogen-activated protein kinase kinase kinase 13 (Homo sapiens) (UniProt O43283)
[26] = target: Mitogen-activated protein kinase kinase kinase 3 (Homo sapiens) (UniProt Q99759)
Chain of Mitogen-activated protein kinase kinase kinase 3 (Homo sapiens) (Q99759 whole entry): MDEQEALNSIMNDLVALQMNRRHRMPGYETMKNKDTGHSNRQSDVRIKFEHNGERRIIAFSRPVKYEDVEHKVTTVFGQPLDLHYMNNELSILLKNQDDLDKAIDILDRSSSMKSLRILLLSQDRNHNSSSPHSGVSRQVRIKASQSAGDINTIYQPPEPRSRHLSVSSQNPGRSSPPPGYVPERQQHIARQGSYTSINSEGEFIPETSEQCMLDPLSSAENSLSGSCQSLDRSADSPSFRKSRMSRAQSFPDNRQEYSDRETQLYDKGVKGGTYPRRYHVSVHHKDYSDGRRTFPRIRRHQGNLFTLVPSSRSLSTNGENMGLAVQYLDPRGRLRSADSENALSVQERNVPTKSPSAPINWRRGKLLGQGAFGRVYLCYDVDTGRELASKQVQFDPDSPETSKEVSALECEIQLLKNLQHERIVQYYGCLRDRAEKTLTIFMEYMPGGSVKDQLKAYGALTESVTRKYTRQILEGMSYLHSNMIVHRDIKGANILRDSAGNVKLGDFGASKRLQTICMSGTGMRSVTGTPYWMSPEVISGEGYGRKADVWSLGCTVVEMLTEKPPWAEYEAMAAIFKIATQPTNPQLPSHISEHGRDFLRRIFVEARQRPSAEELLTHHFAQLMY

[27] = target: Mitogen-activated protein kinase kinase kinase kinase 4 (Homo sapiens) (UniProt O95819)
[28] = target: Mitogen-activated protein kinase kinase kinase 9 (Homo sapiens) (UniProt P80192)
Chain of Mitogen-activated protein kinase kinase kinase 9 (Homo sapiens) (P80192 whole entry, looked up): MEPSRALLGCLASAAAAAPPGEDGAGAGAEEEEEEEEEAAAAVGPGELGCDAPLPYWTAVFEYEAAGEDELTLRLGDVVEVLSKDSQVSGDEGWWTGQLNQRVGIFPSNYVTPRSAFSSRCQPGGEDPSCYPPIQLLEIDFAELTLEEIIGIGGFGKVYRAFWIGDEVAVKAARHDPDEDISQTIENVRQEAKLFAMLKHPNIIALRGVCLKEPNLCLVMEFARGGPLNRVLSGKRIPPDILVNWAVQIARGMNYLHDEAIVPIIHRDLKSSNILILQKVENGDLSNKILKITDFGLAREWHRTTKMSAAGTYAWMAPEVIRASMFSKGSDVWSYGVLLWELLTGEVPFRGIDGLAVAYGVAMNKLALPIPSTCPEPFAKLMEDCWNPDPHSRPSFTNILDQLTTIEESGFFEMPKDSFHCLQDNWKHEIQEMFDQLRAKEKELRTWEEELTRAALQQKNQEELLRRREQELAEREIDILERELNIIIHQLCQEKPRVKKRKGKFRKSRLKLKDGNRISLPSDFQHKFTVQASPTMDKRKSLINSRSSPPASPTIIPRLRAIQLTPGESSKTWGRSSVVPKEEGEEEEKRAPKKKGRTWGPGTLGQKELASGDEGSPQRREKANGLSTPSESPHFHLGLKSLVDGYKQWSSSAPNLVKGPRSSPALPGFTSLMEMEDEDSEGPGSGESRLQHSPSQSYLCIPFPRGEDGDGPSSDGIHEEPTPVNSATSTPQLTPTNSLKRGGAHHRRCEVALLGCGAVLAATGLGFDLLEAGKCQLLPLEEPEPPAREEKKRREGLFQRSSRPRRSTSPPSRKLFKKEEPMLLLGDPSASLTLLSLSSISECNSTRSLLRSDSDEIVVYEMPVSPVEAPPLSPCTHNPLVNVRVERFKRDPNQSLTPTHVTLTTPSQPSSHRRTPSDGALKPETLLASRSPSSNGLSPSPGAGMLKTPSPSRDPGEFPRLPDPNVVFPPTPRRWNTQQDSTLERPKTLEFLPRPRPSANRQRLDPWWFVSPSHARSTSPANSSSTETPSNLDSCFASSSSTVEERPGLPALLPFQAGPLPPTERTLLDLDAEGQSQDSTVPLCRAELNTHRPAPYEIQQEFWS

[29] = target: Mitogen-activated protein kinase kinase kinase 10 (Homo sapiens) (UniProt Q02779)
[30] = target: Mitogen-activated protein kinase kinase kinase 11 (Homo sapiens) (UniProt Q16584)
[31] = target: Mitogen-activated protein kinase 13 (Homo sapiens) (UniProt O15264)
[32] = target: Cyclin-dependent kinase 14 (Homo sapiens) (UniProt O94921)
[33] = target: Phosphatidylinositol 4-phosphate 3-kinase C2 domain-containing subunit beta (Homo sapiens) (UniProt O00750)
[34] = test system: Phosphatidylinositol 4,5-bisphosphate 3-kinase catalytic subunit alpha isoform (Homo sapiens), P42336 [E545K]
[35] = test system: Phosphatidylinositol 4,5-bisphosphate 3-kinase catalytic subunit alpha isoform (Homo sapiens), P42336 [H1047L]
[36] = test system: Phosphatidylinositol 4,5-bisphosphate 3-kinase catalytic subunit alpha isoform (Homo sapiens), P42336 [H1047Y]
[37] = target: Phosphatidylinositol 4-kinase beta (Homo sapiens) (UniProt Q9UBF8)
Chain of Phosphatidylinositol 4-kinase beta (Homo sapiens) (Q9UBF8 2-816 limits assumed): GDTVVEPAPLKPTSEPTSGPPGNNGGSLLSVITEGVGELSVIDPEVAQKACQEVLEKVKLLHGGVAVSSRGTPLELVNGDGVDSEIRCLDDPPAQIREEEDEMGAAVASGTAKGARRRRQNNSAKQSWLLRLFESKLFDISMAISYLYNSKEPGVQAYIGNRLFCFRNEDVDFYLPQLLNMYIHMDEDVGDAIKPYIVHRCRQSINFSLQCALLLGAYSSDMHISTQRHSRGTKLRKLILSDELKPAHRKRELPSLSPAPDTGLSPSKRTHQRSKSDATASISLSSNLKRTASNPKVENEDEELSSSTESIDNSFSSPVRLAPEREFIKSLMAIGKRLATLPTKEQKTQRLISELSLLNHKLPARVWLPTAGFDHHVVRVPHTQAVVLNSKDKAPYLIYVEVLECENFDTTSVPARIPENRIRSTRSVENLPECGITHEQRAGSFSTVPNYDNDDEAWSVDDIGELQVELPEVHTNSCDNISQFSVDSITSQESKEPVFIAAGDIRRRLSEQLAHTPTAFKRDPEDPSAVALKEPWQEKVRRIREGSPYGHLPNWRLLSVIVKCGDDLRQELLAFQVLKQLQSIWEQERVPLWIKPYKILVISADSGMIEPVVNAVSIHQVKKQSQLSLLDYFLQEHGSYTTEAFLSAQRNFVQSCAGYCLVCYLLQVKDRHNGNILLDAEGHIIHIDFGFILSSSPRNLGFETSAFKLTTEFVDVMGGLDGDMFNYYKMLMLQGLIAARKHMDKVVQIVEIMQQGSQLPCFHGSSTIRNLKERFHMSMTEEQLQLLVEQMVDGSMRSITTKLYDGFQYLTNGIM

[38] = target: Serine/threonine-protein kinase N1 (Homo sapiens) (UniProt Q16512)
[39] = target: Serine/threonine-protein kinase PknB (Mycobacterium tuberculosis) (UniProt P9WI81)
Chain of Serine/threonine-protein kinase PknB (Mycobacterium tuberculosis) (P9WI81 whole entry): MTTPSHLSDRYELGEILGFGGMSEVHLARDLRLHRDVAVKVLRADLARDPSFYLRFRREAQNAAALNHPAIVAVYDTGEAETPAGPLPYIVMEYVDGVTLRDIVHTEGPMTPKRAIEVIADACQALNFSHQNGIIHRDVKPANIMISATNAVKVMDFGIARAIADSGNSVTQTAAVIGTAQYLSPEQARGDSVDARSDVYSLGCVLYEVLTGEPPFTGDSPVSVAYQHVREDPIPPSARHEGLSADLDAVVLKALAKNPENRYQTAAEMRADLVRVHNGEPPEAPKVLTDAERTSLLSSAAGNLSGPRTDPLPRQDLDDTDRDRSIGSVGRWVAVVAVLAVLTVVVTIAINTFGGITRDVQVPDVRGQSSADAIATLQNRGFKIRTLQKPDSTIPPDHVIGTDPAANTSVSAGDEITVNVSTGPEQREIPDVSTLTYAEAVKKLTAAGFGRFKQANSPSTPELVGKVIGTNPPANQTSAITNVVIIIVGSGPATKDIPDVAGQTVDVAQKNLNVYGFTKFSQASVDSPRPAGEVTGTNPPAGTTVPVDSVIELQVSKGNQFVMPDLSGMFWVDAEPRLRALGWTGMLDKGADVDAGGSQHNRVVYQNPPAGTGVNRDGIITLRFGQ

[40] = target: cGMP-dependent protein kinase 2 (Homo sapiens) (UniProt Q13237)
[41] = target: Ribosomal protein S6 kinase alpha-3 (Homo sapiens) (UniProt P51812)
[42] = target: Proto-oncogene tyrosine-protein kinase Src (Homo sapiens) (UniProt P12931)
[43] = target: Mitogen-activated protein kinase kinase kinase 7 (Homo sapiens) (UniProt O43318)
[44] = target: TGF-beta receptor type-1 (Homo sapiens) (UniProt P36897)
[45] = target: Tyrosine-protein kinase receptor TYRO3 (Homo sapiens) (UniProt Q06418)

Chain of Activin receptor type-1 (Homo sapiens) (Q04771 whole entry): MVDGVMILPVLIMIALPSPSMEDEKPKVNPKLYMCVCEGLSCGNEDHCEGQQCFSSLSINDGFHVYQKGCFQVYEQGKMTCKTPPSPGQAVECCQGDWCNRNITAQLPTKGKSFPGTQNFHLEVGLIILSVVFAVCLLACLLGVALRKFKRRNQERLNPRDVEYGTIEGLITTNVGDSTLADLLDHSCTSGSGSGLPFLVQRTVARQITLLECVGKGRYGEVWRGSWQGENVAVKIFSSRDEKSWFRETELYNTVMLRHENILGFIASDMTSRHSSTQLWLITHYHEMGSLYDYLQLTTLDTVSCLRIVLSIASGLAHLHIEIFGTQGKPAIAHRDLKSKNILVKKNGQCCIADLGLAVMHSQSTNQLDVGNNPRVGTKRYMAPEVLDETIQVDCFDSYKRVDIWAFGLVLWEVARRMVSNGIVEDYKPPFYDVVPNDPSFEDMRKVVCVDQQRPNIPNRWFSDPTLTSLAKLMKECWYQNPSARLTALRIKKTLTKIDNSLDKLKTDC
Chain of Serine/threonine-protein kinase B-raf (Homo sapiens) (P15056 whole entry): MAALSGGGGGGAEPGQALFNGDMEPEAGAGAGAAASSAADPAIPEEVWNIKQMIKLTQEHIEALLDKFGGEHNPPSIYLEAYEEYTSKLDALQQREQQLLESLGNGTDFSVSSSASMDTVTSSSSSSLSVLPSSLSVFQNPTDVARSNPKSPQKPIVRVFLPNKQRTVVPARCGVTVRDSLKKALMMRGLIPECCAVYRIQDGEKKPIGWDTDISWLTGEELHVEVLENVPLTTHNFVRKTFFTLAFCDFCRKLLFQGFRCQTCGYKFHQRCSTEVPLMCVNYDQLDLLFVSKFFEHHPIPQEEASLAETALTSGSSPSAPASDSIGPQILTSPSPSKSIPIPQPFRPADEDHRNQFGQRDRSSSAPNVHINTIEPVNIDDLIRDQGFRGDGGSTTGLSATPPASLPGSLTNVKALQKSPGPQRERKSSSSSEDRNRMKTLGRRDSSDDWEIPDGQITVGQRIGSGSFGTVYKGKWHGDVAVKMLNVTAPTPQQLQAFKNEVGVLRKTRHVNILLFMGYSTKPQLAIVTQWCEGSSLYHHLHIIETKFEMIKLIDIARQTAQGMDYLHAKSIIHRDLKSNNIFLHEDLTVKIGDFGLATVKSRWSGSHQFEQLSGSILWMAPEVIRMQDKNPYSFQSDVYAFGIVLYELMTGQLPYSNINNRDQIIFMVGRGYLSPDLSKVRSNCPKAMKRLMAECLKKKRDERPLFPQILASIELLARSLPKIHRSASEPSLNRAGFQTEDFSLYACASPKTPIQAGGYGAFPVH

CSc1cccnc1N1CCN(Cc2nc3ccccc3[nH]2)CC1 [A-769]
residual activity [1]: 70% | residual activity [2]: 100% | residual activity [3]: 98% | residual activity [4]: 89% | residual activity [5]: 88% | residual activity [6]: 90% | residual activity [7]: 100% | residual activity [8]: 100% | residual activity [9]: 100% | residual activity [10]: 100% | residual activity [11]: 100% | residual activity [12]: 99% | residual activity [13]: 61% | residual activity [14]: 100% | residual activity [15]: 100% | residual activity [16]: 100% | residual activity [17]: 100% | residual activity [18]: 100% | residual activity [19]: 93% | residual activity [20]: 100% | residual activity [21]: 31% | residual activity [22]: 100% | residual activity [23]: 100% | residual activity [24]: 97% | residual activity [25]: 82% | residual activity [26]: 83% | residual activity [27]: 95% | residual activity [28]: 100% | residual activity [29]: 100% | residual activity [30]: 100% | residual activity [31]: 100% | residual activity [32]: 100% | residual activity [33]: 94% | residual activity [34]: 74% | residual activity [35]: 87% | residual activity [36]: 100% | residual activity [37]: 73% | residual activity [38]: 100% | residual activity [39]: 87% | residual activity [40]: 94% | residual activity [41]: 77% | residual activity [42]: 100% | residual activity [43]: 74% | residual activity [44]: 100% | residual activity [45]: 100%

c1ccc(N2CCN(Cc3nc4ccccc4[nH]3)CC2)nc1 [ABT-724]
residual activity [1]: 80% | residual activity [2]: 100% | residual activity [3]: 100% | residual activity [4]: 100% | residual activity [5]: 100% | residual activity [6]: 100% | residual activity [7]: 0% | residual activity [8]: 96% | residual activity [9]: 100% | residual activity [10]: 100% | residual activity [11]: 100% | residual activity [12]: 100% | residual activity [13]: 48% | residual activity [14]: 98% | residual activity [15]: 100% | residual activity [16]: 100% | residual activity [17]: 100% | residual activity [18]: 100% | residual activity [19]: 100% | residual activity [20]: 100% | residual activity [21]: 67% | residual activity [22]: 91% | residual activity [23]: 95% | residual activity [24]: 99% | residual activity [25]: 86% | residual activity [26]: 100% | residual activity [27]: 100% | residual activity [28]: 100% | residual activity [29]: 93% | residual activity [30]: 100% | residual activity [31]: 100% | residual activity [32]: 100% | residual activity [33]: 85% | residual activity [34]: 59% | residual activity [35]: 100% | residual activity [36]: 79% | residual activity [37]: 100% | residual activity [38]: 88% | residual activity [39]: 87% | residual activity [40]: 100% | residual activity [41]: 100% | residual activity [42]: 93% | residual activity [43]: 52% | residual activity [44]: 97% | residual activity [45]: 93%
